US20170296570A1, “High Drug Load Tablets Comprising Sofosbuvir” (Sandoz AG, priority 2014, published 2017)

What was measured:
[1] = Determination of the moisture stability of polymorphic forms of sofosbuvir and amorphous sofosbuvir (humidity chamber, XRPD before and after); format: physicochemical; details: for XRPD analysis, sample after storage at 40° C./75% RH for 18 h / Visual aspect, sample after storage at 40° C./75% RH for 18 h: after 18 h at 40° C./75% RH in humidity chamber; for Visual aspect, sample after storage at 40° C./75% RH for 18 h: footnote: gel/gum = sample deliquesced; for Visual aspect, sample before storage at 40° C./75% RH / XRPD analysis, sample before storage at 40° C./75% RH: 30 mg sample
Procedure: Even more precisely, the moisture stability of the polymorphic form is defined as the amount in mg of the polymorphic form which is present after an exposure of an amount of 30 mg of the polymorphic form to a relative humidity of (75±1) % at a temperature of (40±1)° C. for an exposure time of (18±1) hours in a humidity chamber, relative to the amount of 30 mg of the polymorphic form before said exposure, as determined via X-ray powder diffraction pattern analysis at a temperature in the range of from 15 to 25° C. with Cu-Kalpha1,2 radiation having a wavelength of 0.15419 nm of the polymorphic form before the exposure and via said X-ray powder diffraction pattern analysis after the exposure.
30 mg of a given polymorphic form of sofosbuvir or of amorphous sofosbuvir prepared according to Reference Examples 1 to 4 were analyzed via XRPD as described in Reference Example 6. Then, these polymorphic forms of sofosbuvir or of amorphous sofosbuvir were exposed to an atmosphere having a relative humidity (RH) of 75% and a temperature of 40° C. for 18 hours in a humidity chamber and analyzed via XRPD as described in Reference Example 6.
XRPD patterns were obtained with an X'Pert PRO diffractometer (PANalytical, Almelo, The Netherlands) equipped with a theta/theta coupled goniometer in transmission geometry, pro-grammable XYZ stage with well plate holder, Cu-Kalpha1,2 radiation source (wavelength 0.15419 nm) with a focusing mirror, a 0.5° divergence slit, a 0.02° soller slit collimator and a 0.5° anti-scattering slit on the incident beam side, a 2 mm anti-scattering slit, a 0.02° soller slit collimator, a Ni-filter and a solid state PIXcel detector on the diffracted beam side. The diffractogram was recorded at room temperature at a tube voltage of 40 kV, tube current of 40 mA, applying a stepsize of 0.013° 2-theta with 40 sec per step in the angular range of 2° to 40° 2-theta. A typical precision of the 2-theta values is in the range of ±0.2° 2-theta. Thus, a diffraction peak that appears for example at 9.4° 2-theta can appear between 9.2 and 9.6° 2-theta on most X-ray diffractometers under standard conditions.

[2] = 40° C., relative humidity 75%; cited from earlier work

Row | SMILES | XRPD analysis, sample after storage at 40° C./75% RH for 18 h [1] | Visual aspect, sample after storage at 40° C./75% RH for 18 h [1] | Visual aspect, sample before storage at 40° C./75% RH [1] | XRPD analysis, sample before storage at 40° C./75% RH [1] | behaviour under stress conditions (deliquescence) [2]
1 | CC(C)OC(=O)[C@H](C)N[P@](=O)(OC[C@H]1O[C@@H](n2ccc(=O)[nH]c2=O)[C@](C)(F)[C@@H]1O)Oc1ccccc1 [Amorphous] | amorphous | gel/gum*^) | white powder | amorphous | –
2 | CC(C)OC(=O)[C@H](C)N[P@](=O)(OC[C@H]1O[C@@H](n2ccc(=O)[nH]c2=O)[C@](C)(F)[C@@H]1O)Oc1ccccc1 [Form 1] | amorphous | gel/gum*^) | white powder | crystalline, Form 1 | –
3 | CC(C)OC(=O)[C@H](C)N[P@](=O)(OC[C@H]1O[C@@H](n2ccc(=O)[nH]c2=O)[C@](C)(F)[C@@H]1O)Oc1ccccc1 [Form 6] | crystalline, Form 6 | white powder | white powder | crystalline, Form 6 | –
4 | CC(C)OC(=O)[C@H](C)N[P@](=O)(OC[C@H]1O[C@@H](n2ccc(=O)[nH]c2=O)[C@](C)(F)[C@@H]1O)Oc1ccccc1 [Form 7] | crystalline, Form 7 | white powder | white powder | crystalline, Form 7 | –
5 | CC(C)OC(=O)[C@H](C)N[P@](=O)(OC[C@H]1O[C@@H](n2ccc(=O)[nH]c2=O)[C@](C)(F)[C@@H]1O)Oc1ccccc1 [sofosbuvir, (S)-isopropyl 2-(((S)-(((2R,3R,4R,5R)-5-(2,4-dioxo-3,4-dihydropyrimidin-1(2H)-yl)-4-fluoro-3-hydroxy-4-methyltetrahydrofuran-2-yl)methoxy)(phenoxy)phosphoryl)-amino)propanoate] | – | – | – | – | deliquesces after a few hours
